# System: SEM cells
# Assay: cell viability relative to DMSO control; higher = less cytotoxic
# Details: 48 h
# Procedure, shortened: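 Viability is expressed as a percentage of DMSO wells within each plate, and cell-free wells serve as background. Seeding densities in the 1536-well plates (5 μl) were 500 cells/well for NOMO1 or SEM leukemia cells and 1000 cells/well for P12-Ichikawa. Each line was adapted for at least four passages in each medium. Library compounds in DMSO were pin-dosed at 47 μM to 0.79 nM (11 points, threefold), and CellTiter-Glo One luminescence was read after 48 h at 37°C.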
# [1] = HPLM + 10% dialyzed FBS, 0.000781 µM
# [2] = HPLM + 10% dialyzed FBS, 0.00234 µM
# [3] = HPLM + 10% dialyzed FBS, 0.00702 µM
# [4] = HPLM + 10% dialyzed FBS, 0.0211 µM
# [5] = HPLM + 10% dialyzed FBS, 0.0632 µM
# [6] = HPLM + 10% dialyzed FBS, 0.19 µM
# [7] = HPLM + 10% dialyzed FBS, 0.569 µM
# [8] = HPLM + 10% dialyzed FBS, 1.71 µM
# [9] = HPLM + 10% dialyzed FBS, 5.12 µM
# [10] = HPLM + 10% dialyzed FBS, 15.4 µM
# [11] = HPLM + 10% dialyzed FBS, 46.1 µM
# [12] = RPMI 5 mM glucose + 10% FBS, 0.000781 µM
# [13] = RPMI 5 mM glucose + 10% FBS, 0.00234 µM
# [14] = RPMI 5 mM glucose + 10% FBS, 0.00702 µM
# [15] = RPMI 5 mM glucose + 10% FBS, 0.0211 µM
# [16] = RPMI 5 mM glucose + 10% FBS, 0.0632 µM
# [17] = RPMI 5 mM glucose + 10% FBS, 0.19 µM
# [18] = RPMI 5 mM glucose + 10% FBS, 0.569 µM
# [19] = RPMI 5 mM glucose + 10% FBS, 1.71 µM
# [20] = RPMI 5 mM glucose + 10% FBS, 5.12 µM
# [21] = RPMI 5 mM glucose + 10% FBS, 15.4 µM
# [22] = RPMI 5 mM glucose + 10% FBS, 46.1 µM
# [23] = RPMI 5 mM glucose + 10% dialyzed FBS, 0.000781 µM
# [24] = RPMI 5 mM glucose + 10% dialyzed FBS, 0.00234 µM
# [25] = RPMI 5 mM glucose + 10% dialyzed FBS, 0.00702 µM
# [26] = RPMI 5 mM glucose + 10% dialyzed FBS, 0.0211 µM
# [27] = RPMI 5 mM glucose + 10% dialyzed FBS, 0.0632 µM
# [28] = RPMI 5 mM glucose + 10% dialyzed FBS, 0.19 µM
# [29] = RPMI 5 mM glucose + 10% dialyzed FBS, 0.569 µM
# [30] = RPMI 5 mM glucose + 10% dialyzed FBS, 1.71 µM
# [31] = RPMI 5 mM glucose + 10% dialyzed FBS, 5.12 µM
# [32] = RPMI 5 mM glucose + 10% dialyzed FBS, 15.4 µM
# [33] = RPMI 5 mM glucose + 10% dialyzed FBS, 46.1 µM
SMILES,cell viability [1],cell viability [2],cell viability [3],cell viability [4],cell viability [5],cell viability [6],cell viability [7],cell viability [8],cell viability [9],cell viability [10],cell viability [11],cell viability [12],cell viability [13],cell viability [14],cell viability [15],cell viability [16],cell viability [17],cell viability [18],cell viability [19],cell viability [20],cell viability [21],cell viability [22],cell viability [23],cell viability [24],cell viability [25],cell viability [26],cell viability [27],cell viability [28],cell viability [29],cell viability [30],cell viability [31],cell viability [32],cell viability [33]
C[N+](C)([O-])CCNc1ccc(NCC[N+](C)(C)[O-])c2c1C(=O)c1c(O)ccc(O)c1C2=O,101%,85.4%,83.8%,84.5%,88.8%,77.1%,69.7%,46.4%,7.02%,20.1%,10.1%,101%,95.8%,105%,89.9%,73.5%,56.6%,55.8%,28.8%,7.28%,12.8%,9.18%,88.9%,86.1%,93.8%,87.7%,79.5%,68.2%,62%,33.5%,8.62%,18.8%,12%
CN(C)C[C@@H]1CC[N]2C=C(C3=C2C=CC=C3)C/4=C(/C(=O)NC4=O)C5=C[N](CCO1)C6=C5C=CC=C6,87.6%,56.8%,105%,110%,97.5%,99.6%,91.2%,81.4%,79.2%,56.8%,2.57%,118%,59.2%,97.3%,97%,99.2%,119%,105%,89.1%,77.7%,49.6%,2.71%,97.7%,47.9%,102%,105%,107%,105%,93.7%,87.2%,73.2%,51.8%,2.49%
CN(C)c1ccc(Nc2nc(N)n(C(=O)c3c(F)cccc3F)n2)cc1,105%,118%,110%,92.2%,111%,117%,97.1%,69%,43.9%,64.7%,56.1%,108%,110%,123%,96.8%,118%,120%,90.2%,42.7%,32.3%,38%,48.7%,102%,118%,117%,76.3%,142%,127%,95.5%,61.2%,34.8%,40.5%,40.6%
O=c1[nH]cnc2c1ncn2[C@H]1CC[C@@H](CO)O1,85.7%,97%,104%,102%,88.3%,101%,102%,110%,99.8%,90.5%,69.4%,85.1%,86.6%,98%,95.8%,90.8%,86.4%,99.9%,94%,83.4%,60.8%,47.4%,77.6%,86.1%,84.3%,85.2%,77.7%,97.6%,105%,92.7%,99.5%,67.8%,70.3%
Cc1[nH]c(/C=C2\C(=O)Nc3ccc([S+](=O)([O-])Cc4c(Cl)cccc4Cl)cc32)c(C)c1C(=O)N1CCC[C@@H]1CN1CCCC1,100%,103%,102%,103%,112%,96.6%,94.8%,76.5%,6.42%,45.4%,9.75%,116%,114%,107%,116%,111%,118%,109%,101%,25.7%,56.7%,34%,84.9%,99.4%,85.3%,94.2%,86.8%,93.2%,92.4%,72.5%,42%,42.3%,26.7%
CC(=O)O[C@@]12CO[C@@H]1C[C@H](O)[C@]3(C)[C@@H]2[C@H](OC(=O)C4=CC=CC=C4)[C@]5(O)C[C@H](OC(=O)C(O)[C@@H](NC(=O)OC(C)(C)C)C6=CC=CC=C6)C(=C(/[C@@H](O)C3=O)C5(C)C)/C (stereo not given in full),23.5%,25.1%,25.4%,26%,26.5%,27.2%,26.1%,23.3%,22.7%,18.6%,5.16%,13.7%,22%,21.2%,18.1%,20.1%,20.7%,18.1%,16.7%,12.1%,9.57%,4.28%,23.4%,21.1%,23%,21.2%,21.4%,19.5%,18.9%,16.7%,16.5%,10.5%,2.56%
CC1(C)CC(O)CC(C)(C)N1[O],87.2%,80.3%,89.8%,86.9%,81.6%,89.1%,44.7%,94.3%,89.5%,92.1%,84.2%,102%,114%,96.3%,105%,98.6%,96.6%,27.7%,101%,113%,103%,99.5%,98.6%,94.6%,97.8%,97.5%,94.3%,95.4%,32.7%,106%,108%,102%,85.4%
Cc1ncc([N+](=O)[O-])n1CCO,100%,94%,104%,104%,112%,105%,103%,111%,118%,100%,108%,104%,118%,103%,111%,118%,109%,109%,117%,121%,105%,104%,107%,109%,123%,122%,114%,146%,127%,115%,122%,124%,130%
OC(COC1=C2C(=O)\C=C(/OC2=CC=C1)C([O-])=O)COC3=C4C(=O)\C=C(/OC4=CC=C3)C([O-])=O,65.3%,72.3%,76%,73.9%,77.7%,43.5%,80.8%,88%,95.9%,73.1%,96.8%,71%,83.6%,85.6%,84.3%,86.6%,20.2%,65.6%,74.7%,99.4%,65.9%,90.9%,72.1%,74.5%,76.6%,73.5%,91.4%,64%,82.6%,95.1%,102%,76.9%,97.7%
Cc1c(C(=O)Nc2cccc(C(F)(F)F)c2)cc(-c2ccccc2)n1CCCN1CCOCC1,99.2%,112%,106%,105%,111%,96.3%,111%,99.5%,90.3%,93.6%,62.8%,89.6%,106%,119%,116%,110%,101%,122%,101%,115%,93.6%,50.9%,104%,111%,121%,113%,121%,115%,109%,109%,95%,92.6%,45.8%
CN(C)CCCNC(=O)c1ccc(-c2cc(O)c3ncccc3c2)cc1,107%,110%,112%,103%,99.7%,103%,104%,91.6%,92.6%,81.9%,40.2%,107%,107%,109%,103%,117%,112%,120%,115%,104%,78.2%,27.1%,95.5%,103%,95.2%,113%,95.2%,100%,103%,105%,93.3%,74.1%,33%
CC(C)(C)c1cc(C(=O)O)c(NC(=O)Nc2ccc3[nH]ncc3c2)s1,95.4%,97.5%,89.6%,101%,100%,70.7%,100%,98.6%,85.9%,93.1%,82.2%,112%,93.2%,94.2%,107%,101%,90.8%,111%,104%,101%,93.1%,77.7%,95.2%,93.1%,83.3%,97.5%,99.6%,88.9%,102%,91%,87.5%,93.7%,73.2%
C[C@@H]1C[C@H]2[C@@H]3CC\C4=C\C(=O)\C=C/[C@]4(C)[C@@]3(Cl)[C@@H](O)C[C@]2(C)[C@@]1(OC(=O)C5=CC=CO5)C(=O)CCl,28.4%,82.2%,45.9%,53.8%,61%,59.3%,53.2%,47.7%,36.9%,45.6%,52%,32.3%,81.8%,35.8%,62.1%,61%,50.4%,50.4%,45.1%,36.9%,37.3%,50.8%,30.9%,76.5%,39%,52.5%,64.1%,47%,46.8%,44.7%,28.8%,43%,36.5%
CCN1C[C@]2(OC(=O)c3ccccc3NC(C)=O)CC[C@H](OC)[C@@]34[C@@H]2C[C@@H]([C@@H]13)[C@@]1(O)C[C@H](OC)[C@H]2C[C@@H]4[C@]1(O)[C@H]2OC,85%,100%,99%,105%,99.6%,104%,98.2%,106%,92.5%,85.2%,88.6%,79.5%,96.6%,101%,102%,106%,99.8%,103%,90.9%,87.9%,65.6%,71%,88.2%,94.6%,97.5%,101%,81.9%,88.4%,99.4%,93%,80.6%,78.4%,86.5%
CCCCCCCCCCCCCCCCCCOP(=O)([O-])OC1CC[N+](C)(C)CC1,82.4%,112%,97.5%,88.7%,103%,101%,109%,106%,87.4%,82.4%,73.8%,91.9%,104%,100%,95.3%,120%,108%,104%,102%,98.2%,98.4%,73.7%,101%,96.9%,98%,84.3%,99.9%,94.9%,101%,99.9%,87.6%,82%,60.2%
